Assays:
Assay in all cases: normalised viability (% of control), CellTiter-Blue; higher = more viable cells (about 100 = DMSO control)
CAL-85-1 [1] = details: 3000 nM; incubation time: 72 h
Procedure: (§1)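 DSRT, CellTiter-Blue viability, 72 h incubation. Signal is normalised to DMSO and benzethonium chloride controls. Value is the normalised response at dose 8.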

HDQ-P1 [2] = details: 3000 nM; incubation time: 72 h
Procedure: as §1

DU-4475 [3] = details: 3000 nM; incubation time: 72 h
Procedure: as §1

CAL-51 [4] = details: 3000 nM; incubation time: 72 h
Procedure: as §1

MDA-MB-453 [5] = details: 3000 nM; incubation time: 72 h
Procedure: as §1

CAL-148 [6] = details: 3000 nM; incubation time: 72 h
Procedure: as §1

CAL-85-1 [7] = details: 300 nM; incubation time: 72 h
Procedure: (§2)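 DSRT, CellTiter-Blue viability, 72 h incubation. Signal is normalised to DMSO and benzethonium chloride controls. Value is the normalised response at dose 6.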

MDA-MB-453 [8] = details: 300 nM; incubation time: 72 h
Procedure: as §2

CAL-148 [9] = details: 300 nM; incubation time: 72 h
Procedure: as §2

MDA-MB-468 = details: incubation time: 72 h
Method in brief: (§3)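 Each entry is normalised viability at a single listed concentration within a series. It comes from breast cancer cell lines incubated 72 h with compound in 384-well plates, then measured with CellTiter-Blue fluorescence at 560/590 nm. Every plate was normalised between vehicle (100) and a positive kill control (0).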

BT-549 = details: incubation time: 72 h
Method in brief: as §3

HCC1599 = details: incubation time: 72 h
Method in brief: as §3

Hs578T = details: incubation time: 72 h
Method in brief: as §3

CAL-85-1 [10] = details: incubation time: 72 h
Method in brief: as §3

MDA-MB-436 = details: incubation time: 72 h
Method in brief: as §3

SK-BR-3 = details: incubation time: 72 h
Method in brief: as §3

HDQ-P1 [11] = details: incubation time: 72 h
Method in brief: as §3

CAL-120 = details: incubation time: 72 h
Method in brief: as §3

MFM-223 = details: incubation time: 72 h
Method in brief: as §3

DU-4475 [12] = details: incubation time: 72 h
Method in brief: as §3

HCC1143 = details: incubation time: 72 h
Method in brief: as §3

BT-474 = details: incubation time: 72 h
Method in brief: as §3

CAL-51 [13] = details: incubation time: 72 h
Method in brief: as §3

MDA-MB-453 [14] = details: incubation time: 72 h
Method in brief: as §3

CAL-148 [15] = details: incubation time: 72 h
Method in brief: as §3

MDA-MB-231 = details: incubation time: 72 h
Method in brief: as §3

## O=C(Cc1ccc(-c2ccc(OCCN3CCOCC3)cc2)cn1)NCc1ccccc1 [KX2-391]
CAL-85-1 [1]
  normalised viability: 42.1%
HDQ-P1 [2]
  normalised viability: 41.6%
DU-4475 [3]
  normalised viability: 8.65%
CAL-51 [4]
  normalised viability: 11.3%
MDA-MB-453 [5]
  normalised viability: 36.2%
CAL-148 [6]
  normalised viability: 24.2%
CAL-85-1 [7]
  normalised viability: 36.3%
MDA-MB-453 [8]
  normalised viability: 28.3%
CAL-148 [9]
  normalised viability: 20.4%
MDA-MB-468; 10 nM
  normalised viability: 104%
MDA-MB-468; 1000 nM
  normalised viability: 38.9%
MDA-MB-468; 10000 nM
  normalised viability: 51.8%
BT-549; 10 nM
  normalised viability: 95.5%
BT-549; 1000 nM
  normalised viability: 17.5%
BT-549; 10000 nM
  normalised viability: 20.7%
HCC1599; 10 nM
  normalised viability: 95.6%
HCC1599; 1000 nM
  normalised viability: 62.3%
HCC1599; 10000 nM
  normalised viability: 58.7%
Hs578T; 10 nM
  normalised viability: 94.4%
Hs578T; 1000 nM
  normalised viability: 15.4%
Hs578T; 10000 nM
  normalised viability: 20.5%
CAL-85-1 [10]; 3 nM
  normalised viability: 92.5%
CAL-85-1 [10]; 30 nM
  normalised viability: 65.1%
CAL-85-1 [10]; 100 nM
  normalised viability: 34.2%
MDA-MB-436; 10 nM
  normalised viability: 98.3%
MDA-MB-436; 1000 nM
  normalised viability: 56.6%
MDA-MB-436; 10000 nM
  normalised viability: 39.2%
SK-BR-3; 10 nM
  normalised viability: 102%
SK-BR-3; 1000 nM
  normalised viability: 19.9%
SK-BR-3; 10000 nM
  normalised viability: 19.1%
HDQ-P1 [11]; 3 nM
  normalised viability: 112%
HDQ-P1 [11]; 30 nM
  normalised viability: 97.7%
HDQ-P1 [11]; 100 nM
  normalised viability: 43.2%
CAL-120; 10 nM
  normalised viability: 93.5%
CAL-120; 1000 nM
  normalised viability: 21.3%
CAL-120; 10000 nM
  normalised viability: 21.3%
MFM-223; 10 nM
  normalised viability: 91.2%
MFM-223; 1000 nM
  normalised viability: 40.7%
MFM-223; 10000 nM
  normalised viability: 26.9%
DU-4475 [12]; 3 nM
  normalised viability: 83.8%
DU-4475 [12]; 30 nM
  normalised viability: 80.5%
DU-4475 [12]; 100 nM
  normalised viability: 16.1%
HCC1143; 10 nM
  normalised viability: 79.3%
HCC1143; 1000 nM
  normalised viability: 32.3%
HCC1143; 10000 nM
  normalised viability: 39.5%
BT-474; 10 nM
  normalised viability: 114%
BT-474; 1000 nM
  normalised viability: 56%
BT-474; 10000 nM
  normalised viability: 66.7%
CAL-51 [13]; 3 nM
  normalised viability: 114%
CAL-51 [13]; 30 nM
  normalised viability: 105%
CAL-51 [13]; 100 nM
  normalised viability: 20%
MDA-MB-453 [14]; 3 nM
  normalised viability: 114%
MDA-MB-453 [14]; 30 nM
  normalised viability: 72.6%
MDA-MB-453 [14]; 100 nM
  normalised viability: 25%
CAL-148 [15]; 3 nM
  normalised viability: 94.8%
CAL-148 [15]; 30 nM
  normalised viability: 91.3%
CAL-148 [15]; 100 nM
  normalised viability: 16.8%
MDA-MB-231; 10 nM
  normalised viability: 98.1%
MDA-MB-231; 1000 nM
  normalised viability: 18.1%
MDA-MB-231; 10000 nM
  normalised viability: 16.3%

## N#Cc1ccc(C(c2ccc(C#N)cc2)n2cncn2)cc1 [Letrozole]
CAL-85-1 [1]
  normalised viability: 90%
HDQ-P1 [2]
  normalised viability: 94%
DU-4475 [3]
  normalised viability: 85.8%
CAL-51 [4]
  normalised viability: 111%
MDA-MB-453 [5]
  normalised viability: 105%
CAL-148 [6]
  normalised viability: 95.5%
CAL-85-1 [7]
  normalised viability: 86.4%
MDA-MB-453 [8]
  normalised viability: 100%
CAL-148 [9]
  normalised viability: 101%
MDA-MB-468; 10 nM
  normalised viability: 101%
MDA-MB-468; 1000 nM
  normalised viability: 115%
MDA-MB-468; 10000 nM
  normalised viability: 92.7%
BT-549; 10 nM
  normalised viability: 83.5%
BT-549; 1000 nM
  normalised viability: 84%
BT-549; 10000 nM
  normalised viability: 90.5%
HCC1599; 10 nM
  normalised viability: 81.2%
HCC1599; 1000 nM
  normalised viability: 70.7%
HCC1599; 10000 nM
  normalised viability: 81.9%
Hs578T; 10 nM
  normalised viability: 91.8%
Hs578T; 1000 nM
  normalised viability: 91%
Hs578T; 10000 nM
  normalised viability: 98.9%
CAL-85-1 [10]; 3 nM
  normalised viability: 86.9%
CAL-85-1 [10]; 30 nM
  normalised viability: 85%
CAL-85-1 [10]; 100 nM
  normalised viability: 87.1%
MDA-MB-436; 10 nM
  normalised viability: 113%
MDA-MB-436; 1000 nM
  normalised viability: 96.1%
MDA-MB-436; 10000 nM
  normalised viability: 105%
SK-BR-3; 10 nM
  normalised viability: 79.4%
SK-BR-3; 1000 nM
  normalised viability: 103%
SK-BR-3; 10000 nM
  normalised viability: 85.2%
HDQ-P1 [11]; 3 nM
  normalised viability: 90.8%
HDQ-P1 [11]; 30 nM
  normalised viability: 79.5%
HDQ-P1 [11]; 100 nM
  normalised viability: 84.5%
CAL-120; 10 nM
  normalised viability: 72.4%
CAL-120; 1000 nM
  normalised viability: 86.6%
CAL-120; 10000 nM
  normalised viability: 80.2%
MFM-223; 10 nM
  normalised viability: 58.8%
MFM-223; 1000 nM
  normalised viability: 70.5%
MFM-223; 10000 nM
  normalised viability: 49.2%
DU-4475 [12]; 3 nM
  normalised viability: 94.6%
DU-4475 [12]; 30 nM
  normalised viability: 81.4%
DU-4475 [12]; 100 nM
  normalised viability: 82%
HCC1143; 10 nM
  normalised viability: 85.4%
HCC1143; 1000 nM
  normalised viability: 90.7%
HCC1143; 10000 nM
  normalised viability: 78.4%
BT-474; 10 nM
  normalised viability: 105%
BT-474; 1000 nM
  normalised viability: 109%
BT-474; 10000 nM
  normalised viability: 109%
CAL-51 [13]; 3 nM
  normalised viability: 115%
CAL-51 [13]; 30 nM
  normalised viability: 107%
CAL-51 [13]; 100 nM
  normalised viability: 103%
MDA-MB-453 [14]; 3 nM
  normalised viability: 105%
MDA-MB-453 [14]; 30 nM
  normalised viability: 76.8%
MDA-MB-453 [14]; 100 nM
  normalised viability: 93.1%
CAL-148 [15]; 3 nM
  normalised viability: 93.8%
CAL-148 [15]; 30 nM
  normalised viability: 93%
CAL-148 [15]; 100 nM
  normalised viability: 94.8%
MDA-MB-231; 10 nM
  normalised viability: 86.3%
MDA-MB-231; 1000 nM
  normalised viability: 87.8%
MDA-MB-231; 10000 nM
  normalised viability: 95.5%

Reference: the supplement of paper PMC4862054
